Literature values as cited in patent US20130012613A1, “METHOD FOR SYNTHESIZING CALIXARENE AND/OR CYCLODEXTRIN COPOLYMERS, TERPOLYMERS AND TETRAPOLYMERS, AND USES THEREOF” (Drug Research Technology Transfer LLC, priority 2009, published 2013).
≈ marks a conversion by molar mass, not a printed value.

Details: native cyclodextrins
For `OC[C@H]1O[C@@H]2O[C@H]3[C@H](O)[C@@H](O)[C@@H](O[C@H]4[C@H](O)[C@@H](O)[C@@H](O[C@H]5[C@H](O)[C@@H](O)[C@@H](O[C@H]6[C@H](O)[C@@H](O)[C@@H](O[C@H]7[C@H](O)[C@@H](O)[C@@H](O[C@H]1[C@H](O)[C@H]2O)O[C@@H]7CO)O[C@@H]6CO)O[C@@H]5CO)O[C@@H]4CO)O[C@@H]3CO` [alpha-CD, alpha-cyclodextrin], the solubility in water is given as 127 mg/mL (≈ 131 mM). In the case of `OC[C@H]1O[C@@H]2O[C@H]3[C@H](O)[C@@H](O)[C@@H](O[C@H]4[C@H](O)[C@@H](O)[C@@H](O[C@H]5[C@H](O)[C@@H](O)[C@@H](O[C@H]6[C@H](O)[C@@H](O)[C@@H](O[C@H]7[C@H](O)[C@@H](O)[C@@H](O[C@H]8[C@H](O)[C@@H](O)[C@@H](O[C@H]1[C@H](O)[C@H]2O)O[C@@H]8CO)O[C@@H]7CO)O[C@@H]6CO)O[C@@H]5CO)O[C@@H]4CO)O[C@@H]3CO` [beta-CD, beta-cyclodextrin], the solubility in water is given as 18.8 mg/mL (≈ 16.6 mM). In the case of `OC[C@H]1O[C@@H]2O[C@H]3[C@H](O)[C@@H](O)[C@@H](O[C@H]4[C@H](O)[C@@H](O)[C@@H](O[C@H]5[C@H](O)[C@@H](O)[C@@H](O[C@H]6[C@H](O)[C@@H](O)[C@@H](O[C@H]7[C@H](O)[C@@H](O)[C@@H](O[C@H]8[C@H](O)[C@@H](O)[C@@H](O[C@H]9[C@H](O)[C@@H](O)[C@@H](O[C@H]1[C@H](O)[C@H]2O)O[C@@H]9CO)O[C@@H]8CO)O[C@@H]7CO)O[C@@H]6CO)O[C@@H]5CO)O[C@@H]4CO)O[C@@H]3CO` [gamma-CD, gamma-cyclodextrin], the solubility in water is listed as 236 mg/mL (≈ 182 mM).
